In one assay the test system is Hep3B cells (hepatocellular carcinoma cell line). The assay is described as follows: In vitro MTS cell viability assay (NCI-60 methodology), Hep3B. It is filed as cell-based. Conditions: Homo sapiens, 48 h, Table 1, MTS, 2 days drug incubation, 50% reduction vs time zero, read-out: Hep3B LC50. An outline of the steps: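 Hep3B cells given five 2-fold dilutions of compound for 2 days, with viability by MTS measured at time zero and at end. LC50 is the concentration giving a 50% fall in viable cells relative to the start of treatment, per NCI-60 formula.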
With `CCOc1ccc(-c2nc(NC(=O)c3ccc([N+](=O)[O-])s3)c3cnn(C)c3n2)cc1` [Compound 1-2, N-(6-(4-ethoxyphenyl)-1-methyl-1H-pyrazolo[3,4-d]pyrimidin-4-yl)-5-nitrothiophene-2-carboxamide], the LC50 stood at 3240 nM.

Still in this assay, the particulars now being: Homo sapiens, 48 h, Table 2, MTS, 2 days drug incubation, 50% reduction vs time zero, read-out: Hep3B LC50.
As to `Cc1csc2c(-c3ccc(OC(F)(F)F)cc3)nc(NC(=O)c3ccc([N+](=O)[O-])s3)nc12` [Compound 2-8, N-(7-methyl-4-(4-(trifluoromethoxy)phenyl)thieno[3,2-d]pyrimidin-2-yl)-5-nitrothiophene-2-carboxamide], the 50% lethal concentration (LC50) was found to be 1710 nM.

Still in this assay, the particulars now being: Homo sapiens, 48 h, Table 3, MTS, 2 days drug incubation, 50% reduction vs time zero, read-out: Hep3B LC50.
Regarding `Cc1nn(C)c2c(NC(=O)c3ccc([N+](=O)[O-])s3)nc(-c3cccc(C(F)(F)F)c3)nc12` [Compound 3-2, N-(1,3-dimethyl-5-(3-(trifluoromethyl)phenyl)-1H-pyrazolo[4,3-d]pyrimidin-7-yl)-5-nitrothiophene-2-carboxamide], the 50% lethal concentration (LC50) was 860 nM. On the same count and under the same terms, the result for `CCn1cc2nc(-c3ccc(C(C)(C)C)cc3)nc(NC(=O)c3ccc([N+](=O)[O-])s3)c2c1` [Compound 3-11, N-(2-(4-(tert-butyl)phenyl)-6-ethyl-6H-pyrrolo[3,4-d]pyrimidin-4-yl)-5-nitrothiophene-2-carboxamide] reads 7640 nM.

Staying with this assay, now noted: Homo sapiens, 48 h, Table 4, MTS, 2 days drug incubation, 50% reduction vs time zero, read-out: Hep3B LC50.
`Cc1csc2c(NC(=O)c3ccc([N+](=O)[O-])s3)nc(-c3ccc(C(C)(C)C)cc3)nc12` [Compound 4-1]: the LC50 was determined as 1150 nM. Consider `O=C(Nc1nc(-c2ccc(Cl)c(F)c2)nc2c(-c3ccccc3)csc12)c1ccc([N+](=O)[O-])s1` [Compound 4-16, N-(2-(4-chloro-3-fluorophenyl)-7-phenylthieno[3,2-d]pyrimidin-4-yl)-5-nitrothiophene-2-carboxamide], for which the LC50 came to 560 nM. The same measure, in the same setting: the result for `Cc1csc2c(NC(=O)c3ccc([N+](=O)[O-])s3)nc(-c3cc(F)c(F)c(F)c3)nc12` [Compound 4-9, N-(7-methyl-2-(3,4,5-trifluorophenyl)thieno[3,2-d]pyrimidin-4-yl)-5-nitrothiophene-2-carboxamide] reads greater than 10000 nM.

The assay is the same for the next values; noted with them: Homo sapiens, 48 h, Table 5, MTS, 2 days drug incubation, 50% reduction vs time zero, read-out: Hep3B LC50.
Consider `CCOCCOCCOc1nc(NC(=O)c2ccc([N+](=O)[O-])s2)c2cnn(-c3ccccc3)c2n1` [Compound 5-10, N-(6-(2-(2-ethoxyethoxy)ethoxy)-1-phenyl-1H-pyrazolo[3,4-d]pyrimidin-4-yl)-5-nitrothiophene-2-carboxamide], for which the LC50 is greater than 5000 nM.

Consider `O=C(Nc1nc(NS(=O)(=O)c2ccc(Cl)cc2)nc2c1cnn2-c1ccccc1)c1ccc([N+](=O)[O-])s1` [Compound 5-9, N-(6-((4-chlorophenyl)sulfonamido)-1-phenyl-1H-pyrazolo[3,4-d]pyrimidin-4-yl)-5-nitrothiophene-2-carboxamide], for which the LC50 was greater than 6000 nM. Same read-out and setting: the result for `COc1ccc(-c2nc(NC(=O)c3ccc([N+](=O)[O-])s3)c3cnn(-c4ccccc4)c3n2)cc1` [Compound 5-36, N-(6-(4-methoxyphenyl)-1-phenyl-1H-pyrazolo[3,4-d]pyrimidin-4-yl)-5-nitrothiophene-2-carboxamide] reads 600 nM; that for `O=C(Nc1nc(-c2ccc(F)cc2)nc2c1cnn2-c1ccccc1)c1ccc([N+](=O)[O-])s1` [Compound 5-27], 270 nM.

The assay is the same for the next values; noted with them: Homo sapiens, 48 h, Table 6, MTS, 2 days drug incubation, 50% reduction vs time zero, read-out: Hep3B LC50.
For the compound `COc1ccc(-n2ncc3c(NC(=O)c4ccc([N+](=O)[O-])s4)nc(-c4ccc(C)nc4)nc32)cc1` [Compound 6-17, N-(1-(4-methoxyphenyl)-6-(6-methylpyridin-3-yl)-1H-pyrazolo[3,4,d]pyrimidin-4-yl)-5-nitrothiophene-2-carboxamide], the median lethal concentration (LC50) was found to be 190 nM. The same measure, in the same setting: the result for `CCOCCOCCOc1ccc(-c2nc(NC(=O)c3ccc([N+](=O)[O-])s3)c3cnn(-c4ccc(F)cc4)c3n2)cn1` [Compound 6-137, N-(6-(6-(2-(2-ethoxyethoxy)ethoxy)pyridin-3-yl)-1-(4-fluorophenyl)-1H-pyrazolo[3,4-d]pyrimidin-4-yl)-5-nitrothiophene-2-carboxamide] reads 180 nM.

Regarding `CC(C)(C)c1ccc(-n2ncc3c(NC(=O)c4ccc([N+](=O)[O-])s4)nc(-n4cc(C(F)(F)F)cn4)nc32)cc1` [Compound 6-78, N-(1-(4-(ter-butyl)phenyl)-6-(4-(trifluoromethyl)-1H-pyrazol-1-yl)-1H-pyrazolo[3,4-d]pyrimidin-4-yl)-5-nitrothiophene-2-carboxamide], the median lethal concentration (LC50) came to 570 nM. Still for that read-out and setting: the result for `O=C(Nc1nc(-c2ccc(C(F)(F)F)cc2C(F)(F)F)nc2c1cnn2-c1cccc(Cl)c1)c1ccc([N+](=O)[O-])s1` [Compound 6-42] reads 760 nM; that for `CC(C)(C)c1ccc(-n2ncc3c(NC(=O)c4ccc([N+](=O)[O-])s4)nc(-c4nnc(C(C)(C)C)o4)nc32)cc1` [Compound 6-76, N-(6-(5-(tert-butyl)-1,3,4-oxadiazol-2-yl)-1-(4-(tert-butyl)phenyl)-1H-pyrazolo[3,4-d]pyrimidin-4-yl)-5-nitrothiophene-2-carboxamide], 310 nM. `O=C(Nc1nc(-c2cccc(Cl)c2)nc2c1cnn2-c1cccc(Cl)c1)c1ccc([N+](=O)[O-])s1` [Compound 6-37, N-(1,6-bis(3-chlorophenyl)-1H-pyrazolo[3,4-d]pyrimidin-4-yl)-5-nitrothiophene-2-carboxamide]: the LC50 came to 230 nM. As for `CCOCCOc1ccc(-c2nc(NC(=O)c3ccc([N+](=O)[O-])s3)c3cnn(-c4ccc(OC)cc4)c3n2)cn1` [Compound 6-27, N-(6-(6-(2-ethoxyethoxy)pyridin-3-yl)-1-(4-methoxyphenyl)-1H-pyrazolo[3,4-d]pyrimidin-4-yl)-5-nitrothiophene-2-carboxamide], the LC50 amounted to 210 nM.

For `CC(C)(C)c1ccc(-n2ncc3c(NC(=O)c4ccc([N+](=O)[O-])s4)nc(OCCN4CCOCC4)nc32)cc1` [Compound 6-60, N-(1-(4-(tert-butyl)phenyl)-6-(2-morpholinoethoxy)-1H-pyrazolo[3,4-d]pyrimidin-4-yl)-5-nitrothiophene-2-carboxamide], the LC50 stood at 890 nM. The same measure, in the same setting: the result for `Cc1ccccc1-n1ncc2c(NC(=O)c3ccc([N+](=O)[O-])s3)nc(N3CCC[C@H]3CO)nc21` [Compound 6-1, (S)—N-(6-(2-(hydroxymethyl)pyrrolidin-1-yl)-1-(o-tolyl)-1H-pyrazolo[3,4-d]pyrimidin-4-yl)-5-nitrothiophene-2-carboxamide] reads greater than 3000 nM; that for `O=C(Nc1nc(-c2ccsc2)nc2c1cnn2-c1cccc(Cl)c1)c1ccc([N+](=O)[O-])s1` [Compound 6-33, N-(1-(3-chlorophenyl)-6-(thiophen-3-yl)-1H-pyrazolo[3,4-d]pyrimidin-4-yl)-5-nitrothiophene-2-carboxamide], 290 nM. In the case of `CC(C)(C)c1ccc(-c2nc(NC(=O)c3ccc([N+](=O)[O-])s3)c3cnn(-c4ccc(OC(F)(F)F)cc4)c3n2)cc1` [Compound 6-86, N-(6-(4-(tert-butyl)phenyl)-1-(4-(trifluoromethoxy)phenyl)-1H-pyrazolo[3,4-d]pyrimidin-4-yl)-5-nitrothiophene-2-carboxamide], the 50% lethal concentration (LC50) amounted to 3460 nM. On the same count and under the same terms, the result for `CC(C)(C)c1ccc(-n2ncc3c(NC(=O)c4ccc([N+](=O)[O-])s4)nc(N4CCN(C(C)(C)C)CC4)nc32)cc1` [Compound 6-73] reads 650 nM.

The same assay, now with this note: Homo sapiens, 48 h, Table 7, MTS, 2 days drug incubation, 50% reduction vs time zero, read-out: Hep3B LC50.
Take `O=C(Nc1nc(-c2ccc(F)cc2)nc2c1cnn2-c1ccc(F)cc1F)c1ccc([N+](=O)[O-])s1` [Compound 7-12]: the LC50 came to 430 nM.

The same assay, now with this note: Homo sapiens, 48 h, Table 8, MTS, 2 days drug incubation, 50% reduction vs time zero, read-out: Hep3B LC50.
As to `CC(C)(C)OC(=O)N1CC[C@H](n2ncc3c(NC(=O)c4ccc([N+](=O)[O-])s4)nc(-c4ccc(F)nc4)nc32)C1` [Compound 8-7, tert-butyl (S)-3-(6-(6-fluoropyridin-3-yl)4-(5-nitrothiophene-2-carboxamido)-1H-pyrazolo[3,4-d]pyrimidin-1-yl)pyrrolidine-1-carboxylate], the LC50 was 1490 nM.

Still in this assay, the particulars now being: Homo sapiens, 48 h, Table 10, MTS, 2 days drug incubation, 50% reduction vs time zero, read-out: Hep3B LC50.
In the case of `CC1(C)CCC(n2ncc3c(NC(=O)c4ccc([N+](=O)[O-])s4)nc(-c4ccc(Cl)nc4)nc32)CC1` [Compound 10-64, N-(6-(6-chloropyridin-3-yl)-1-(4,4-dimethylcyclohexyl)-1H-pyrazolo[3,4-d]pyrimidin-4-yl)-5-nitrothiophene-2-carboxamide], the 50% lethal concentration (LC50) worked out at 570 nM. `O=C(Nc1nc(N2CCC(F)(F)C2)nc2c1cnn2C1CCCCC1)c1ccc([N+](=O)[O-])s1` [Compound 10-1, N-(1-cyclohexyl-6-(3,3-difluoropyrrolidin-1-yl)-1H-pyrazolo[3,4-d]pyrimidin-4-yl)-5-nitrothiophene-2-carboxamide]: the LC50 stood at 1250 nM.

For `O=C(Nc1nc(-c2cccnc2)nc2c1cnn2C1CCCCC1)c1ccc([N+](=O)[O-])s1` [Compound 10-10, N-(1-cyclohexyl-6-(pyridin-3-yl)-1H-pyrazolo[3,4,d]pyrimidin-4-yl)-5-nitrothiophene-2-carboxamide], the 50% lethal concentration (LC50) turned out to be 990 nM. Still for that read-out and setting: the result for `CC1CC(C)CC(n2ncc3c(NC(=O)c4ccc([N+](=O)[O-])s4)nc(-c4ccc(F)nc4)nc32)C1` (stereo not drawn) [Compound 10-68, N-(1-(3,5-dimethylcyclohexyl)-6-(6-fluoropyridin-3-yl)-1H-pyrazolo[3,4-d]pyrimidin-4-yl)-5-nitrothiophene-2-carboxamide] reads 970 nM; that for `O=C(Nc1nc(-c2ccc(Cl)cc2)nc2c1cnn2C1CCCCC1)c1ccc([N+](=O)[O-])s1` [Compound 10-17, N-(6-(4-chlorophenyl)-1-cyclohexyl-1H-pyrazolo[3,4-d]pyrimidin-4-yl)-5-nitrothiophene-2-carboxamide], 530 nM.

Usually LC50 stands for the concentration lethal to half of the exposed cells or organisms.

The values are drawn from patent US20240150356A1, “Pyrimidine amide compounds and use thereof” (ALPHALA CO., LTD., priority 2019, published 2024).
